Tests used:
SMYD3 [1] = biological target: T1, SMYD3 (Homo sapiens (Human), UniProt Q9H7B4); assay: SMYD3 biochemical assay (SPA, 3H-SAM methylation of MEKK2 protein substrate); conditions: read-out: SMYD3 Biochem IC50 (μM)*
Summary of the method: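 Tritium incorporation into GST-MEKK2 is counted by scintillation proximity after citric acid bead capture. Native human SMYD3 is preincubated with test compound for 30 min at room temperature at pH 8.0 (Tris-Cl, TCEP, BSG, Tween 20) before 3H-SAM and substrate are added; cold SAM at 100 uM final stops turnover.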

SMYD3 [2] = biological target: T1, SMYD3; assay: SMYD3 cell assay (Trimethyl-MEKK2 In-Cell Western in 293T/17 cells); type: cell-based; conditions: read-out: SMYD3 Cell IC50 (μM)*
From the text: Trimethyl-MEKK2-in-Cell Western Assay
MEM/Glutamax medium, Optimem Reduced Serum medium, penicillin-streptomycin, 0.05% trypsin and 1×D-PBS were purchased from Life Technologies, Grand Island, N.Y., USA. PBS-10× was purchased from Ambion, Life Technologies, Grand Island, N.Y., USA. PBS with Tween 20 (PBST (10×)) was purchased from KPL, Gaithersburg, Md., USA. Tet System FBS-approved FBS US Source was purchased from Clontech, Mountain View, Calif., USA. Odyssey blocking buffer, 800CW goat anti-rabbit IgG (H+L) antibody, 680CW Goat anti-mouse IgG (H+L) and Licor Odyssey infrared scanner were purchased from Licor Biosciences, Lincoln, Nebr., USA. Tri-methyl-Lysine [A260]-MEKK2 antibody, MEKK2 and SMYD3 plasmids were made at Epizyme. Anti-flag monoclonal mouse antibody was purchased from Sigma, St. Louis, Mo., USA. Methanol was purchased from VWR, Franklin, Mass., USA. 10% Tween 20 was purchased from KPL, Inc., Gaithersburg, Md., USA. Fugene was purchased from Promega, Madison, Wis., USA. The Biotek ELx405 was purchased from BioTek, Winooski, Vt., USA. The multidrop combi was purchased from Thermo Scientific, Waltham, Mass., USA.
Cell Treatment, in Cell Western (ICW) for Detection of Trimethyl-Lysine-MEKK2 and MEKK2.
Plasmids were prepared for delivery to cells by first mixing 1350 μL Opti-MEM with Fugene (81 μL) in a sterile Eppendorf and incubated for five minutes at room temperature (RT). […] Entire volume of Opti-MEM/Fugene mixture was then added to a microfuge tube containing DNA plasmid, mixed and then incubated×15 minutes at RT. […] Medium was then removed, and cells were washed once with PBS in the flask. Trypsin 0.05% (3 mL) was added and cells incubated for three minutes. Room temperature MEM+10% Tet system FBS was added and cells were mixed gently, and counted using the Vi-cell. Cells were seeded at 100,000 cells/mL in 50 μL MEM/10% Tet FBS/Pen/Strep to a 384 well black/clear poly-D-lysine coated plate containing test agent diluted in DMSO. The final top concentration of test compound was 40 μM. […] Plates were incubated×30 minutes at RT in low-airflow area, followed by incubation at 37° C. under 5% CO2 for 24 hours. Medium was aspirated from all wells of assay plates prior to fixation and permeabilization with ice cold (−20° C.) methanol (90 μL/well) for ten minutes. Plates were rinsed with PBS three times on BioTek ELx405. PBS was removed with a final aspiration, and Odyssey blocking buffer (50 μL/well) was added to each well and incubated for one hour at RT. Primary antibody solution was prepared (anti-trimethyl-MEKK2 at 1:600 dilution plus mouse anti-flag antibody at 1:10,000 dilution in diluent (Odyssey Blocking buffer+0.1% Tween 20)) and 20 μL per well was dispensed using the Multidrop Combi. Assay plates were then sealed with foil, and incubated overnight at 4° C. Plates were washed five times with PBS-Tween (1×) on Biotek ELx405 and blotted on paper towel to remove excess reagent.
First, the ratio for each well was determined by:
Each plate included fourteen control wells of DMSO only treatment (Minimum Inhibition) as well as fourteen control wells for maximum inhibition (Background). The average of the ratio values for each control type was calculated and used to determine the percent inhibition for each test well in the plate. Reference compound was serially diluted two-fold in DMSO for a total of nine test concentrations, beginning at 40 μM.
Percent inhibition was calculated (below).
Non-linear regression curves were generated to calculate the IC50 and dose-response relationship using triplicate wells per concentration of compound.

T1 sequence (Q9H7B4 whole entry): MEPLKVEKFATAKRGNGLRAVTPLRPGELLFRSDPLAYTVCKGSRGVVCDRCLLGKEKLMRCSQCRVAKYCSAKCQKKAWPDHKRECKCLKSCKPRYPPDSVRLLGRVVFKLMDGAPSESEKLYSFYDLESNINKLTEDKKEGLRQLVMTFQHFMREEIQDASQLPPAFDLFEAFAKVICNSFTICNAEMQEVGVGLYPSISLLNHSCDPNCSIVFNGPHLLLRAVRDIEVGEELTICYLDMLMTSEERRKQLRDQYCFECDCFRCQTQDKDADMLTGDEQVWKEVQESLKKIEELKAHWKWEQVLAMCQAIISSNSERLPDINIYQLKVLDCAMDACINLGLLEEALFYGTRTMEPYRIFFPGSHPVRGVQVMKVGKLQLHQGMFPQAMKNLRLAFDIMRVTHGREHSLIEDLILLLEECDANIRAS

Row | Compound | IC50 (SMYD3 [1]) [µM] | IC50 (SMYD3 [2]) [µM] | IC50 (SMYD3 [2]; 293T/17 cells) [µM]
1 | C[C@@H]1CN(C(=O)CC2CCNCC2)CC[C@@H]1NC(=O)c1cc(C2CC2)on1 [compound 149, 5-cyclopropyl-N-((3R,4S)-3-methyl-1-(2-(piperidin-4-yl)acetyl)piperidin-4-yl)isoxazole-3-carboxamide] | 0.291 | 3.22 | 
2 | NC1CCC(C(=O)N2CCC(NC(=O)c3cc(C4CC4)on3)C3(CC3)C2)CC1 (stereo not drawn) [compound 156, N-(5-((1r,4r)-4-aminocyclohexane-1-carbonyl)-5-azaspiro[2.5]octan-8-yl)-5-cyclopropylisoxazole-3-carboxamide] | 0.245 | 1.76 | 
3 | C[C@@H]1CC(NC(=O)c2cc(C3CC3)on2)CCN1C(=O)C1CC2(CC(N)C2)C1 (stereo partly drawn) [compound 175, N-((2R)-1-(6-aminospiro[3.3]heptane-2-carbonyl)-2-methylpiperidin-4-yl)-5-cyclopropylisoxazole-3-carboxamide] | 0.274 | 0.983 | 
4 | C[C@H]1C[C@@H](NC(=O)c2cc(C3CC3)on2)CCN1S(=O)(=O)CCCN [compound 187] | 0.00409 | 0.831 | 
5 | C[C@@H]1C[C@H](NC(=O)c2cc(C3CC3)on2)CCN1S(=O)(=O)CCCN [compound 189, N-((2R,4R)-1-((3-aminopropyl)sulfonyl)-2-methylpiperidin-4-yl)-5-cyclopropylisoxazole-3-carboxamide] | 0.0559 | 1.24 | 
6 | C[C@@H]1CC(NC(=O)c2cc(C3CC3)on2)CCN1C(=O)C12C3C4C1C1C2C3C41N (stereo partly drawn) [compound 202, N-((2R)-1-(4-aminocubane-1-carbonyl)-2-methylpiperidin-4-yl)-5-cyclopropylisoxazole-3-carboxamide] | 0.142 | 1.31 | 
7 | NCCCS(=O)(=O)N1CCC(NC(=O)c2cc(C3CC3)on2)CC1 [compound 210, N-(1-((3-aminopropyl)sulfonyl)piperidin-4-yl)-5-cyclopropylisoxazole-3-carboxamide] | 0.321 | 2.9 | 
8 | CC1(NC(=O)c2cc(C3CC3)on2)CCN(S(=O)(=O)CCCN)CC1 [compound 218, N-(1-((3-aminopropyl)sulfonyl)-4-methylpiperidin-4-yl)-5-cyclopropylisoxazole-3-carboxamide] | 0.23 | 1.42 | 
9 | CC1CC(NC(=O)c2cc(C3CC3)on2)CCN1C(=O)Cc1c[nH]cn1 (stereo not drawn) [compound 227, N-(1-(2-(1H-imidazol-4-yl)acetyl)-2-methylpiperidin-4-yl)-5-cyclopropylisoxazole-3-carboxamide] | > 10 | > 40 | 
10 | C[C@H]1C[C@@H](NC(=O)c2cc(C3CC3)on2)CCN1S(=O)(=O)CCc1ccccc1 [compound 235, 5-cyclopropyl-N-((2S,4S)-2-methyl-1-(phenethylsulfonyl)piperidin-4-yl)isoxazole-3-carboxamide] | 1.33 | 3.3 | 
11 | C[C@H]1C[C@H](NC(=O)c2cc(C3CC3)on2)CCN1S(=O)(=O)Cc1ccccc1 [compound 244, N-((2S,4R)-1-(benzylsulfonyl)-2-methylpiperidin-4-yl)-5-cyclopropylisoxazole-3-carboxamide] | > 10 | 14.1 | 
12 | CC1CN(C(=O)[C@H]2CC[C@H](N)CC2)C(C)CC1NC(=O)c1cc(C2CC2)on1 (stereo partly drawn) [compound 263, N-(1-((1r,4r)-4-aminocyclohexane-1-carbonyl)-2,5-dimethylpiperidin-4-yl)-5-cyclopropylisoxazole-3-carboxamide] | 0.0322 |  | 0.569
13 | NCCCC(=O)N1CC2CCC1CC2NC(=O)c1cc(C2CC2)on1 (stereo not drawn) [compound 265, N-(2-(4-aminobutanoyl)-2-azabicyclo[2.2.2]octan-5-yl)-5-cyclopropylisoxazole-3-carboxamide] | 5.45 |  | > 40
14 | C[C@H]1C[C@@H](NC(=O)c2cc(C3CC3)on2)CCN1C(=O)CC(CN)Cc1ccccc1 (stereo partly drawn) [compound 269, N-((2S,4S)-1-(4-amino-3-benzylbutanoyl)-2-methylpiperidin-4-yl)-5-cyclopropylisoxazole-3-carboxamide] | > 10 |  | > 40
15 | C[C@@H]1C[C@@H](NC(=O)c2cc(C3CC3)on2)CCN1C(=O)CC(CN)Cc1ccccc1 (stereo partly drawn) [compound 270, N-((2R,4S)-1-(4-amino-3-benzylbutanoyl)-2-methylpiperidin-4-yl)-5-cyclopropylisoxazole-3-carboxamide] | > 10 |  | > 40
16 | C[C@H]1C[C@H](NC(=O)c2cc(C3CC3)on2)CCN1C(=O)CC(CN)Cc1ccccc1 (stereo partly drawn) [compound 271, N-((2S,4R)-1-(4-amino-3-benzylbutanoyl)-2-methylpiperidin-4-yl)-5-cyclopropylisoxazole-3-carboxamide] | > 10 |  | > 40
17 | C[C@@H]1C[C@H](NC(=O)c2cc(C3CC3)on2)CCN1C(=O)CC(CN)Cc1ccccc1 (stereo partly drawn) [compound 272, N-((2R,4R)-1-(4-amino-3-benzylbutanoyl)-2-methylpiperidin-4-yl)-5-cyclopropylisoxazole-3-carboxamide] | > 10 |  | > 40
18 | C[C@H]1C[C@@H](NC(=O)c2cc(C3CC3)on2)CCN1S(=O)(=O)Cc1ccccc1 [compound 274, N-((2S,4S)-1-(benzylsulfonyl)-2-methylpiperidin-4-yl)-5-cyclopropylisoxazole-3-carboxamide] | 0.433 |  | 1.42
19 | C[C@H]1C[C@@H](NC(=O)c2cc(C3CC3)on2)CCN1S(=O)(=O)c1ccccn1 [compound 275, 5-cyclopropyl-N-((2S,4S)-2-methyl-1-(pyridin-2-ylsulfonyl)piperidin-4-yl)isoxazole-3-carboxamide] | 0.154 |  | 0.676
20 | C[C@@H]1C[C@@H](NC(=O)c2cc(C3CC3)on2)CCN1S(=O)(=O)c1cn(C)cn1 [compound 283, 5-cyclopropyl-N-((2R,4S)-2-methyl-1-((1-methyl-1H-imidazol-4-yl)sulfonyl)piperidin-4-yl)isoxazole-3-carboxamide] | > 10 |  | > 40
21 | C[C@H]1C[C@H](NC(=O)c2cc(C3CC3)on2)CCN1S(=O)(=O)c1ccccn1 [compound 286, 5-cyclopropyl-N-((2S,4R)-2-methyl-1-(pyridin-2-ylsulfonyl)piperidin-4-yl)isoxazole-3-carboxamide] | > 10 |  | 10.7
22 | C[C@H]1C[C@H](NC(=O)c2cc(C3CC3)on2)CCN1S(=O)(=O)c1cn(C)cn1 [compound 291, 5-cyclopropyl-N-((2S,4R)-2-methyl-1-((1-methyl-1H-imidazol-4-yl)sulfonyl)piperidin-4-yl)isoxazole-3-carboxamide] | > 10 |  | > 40
23 | C[C@@H]1C[C@H](NC(=O)c2cc(C3CC3)on2)CCN1S(=O)(=O)c1ccccn1 [compound 293, 5-cyclopropyl-N-((2R,4R)-2-methyl-1-(pyridin-2-ylsulfonyl)piperidin-4-yl)isoxazole-3-carboxamide] | 4.84 |  | 7.19
24 | C[C@@H]1C[C@H](NC(=O)c2cc(C3CC3)on2)CCN1S(=O)(=O)c1cn(C)cn1 [compound 294, 5-cyclopropyl-N-((2R,4R)-2-methyl-1-((1-methyl-1H-imidazol-4-yl)sulfonyl)piperidin-4-yl)isoxazole-3-carboxamide] | > 10 |  | > 40

From patent US10577363B2, “Substituted piperidine compounds” (EPIZYME, INC., priority 2014, dated 2020)
